In patent US20240238448A1, “USE OF CHEMICAL EPIGENETIC MODIFIERS TO MODULATE GENE […] VECTORS” (The University of North Carolina at Chapel Hill, priority 2021, published 2024):
Where two headings read alike, the source gives them in different places.

How the values were obtained:
[1] = tested on: AAV2-BD-JET-GFP genomes in 293-ZF-FKBP cells; assay: CEM activation of AAV2-BD-JET-GFP vectors in 293-ZF-FKBP cells, GFP fluorescence by flow cytometry; type: cell-based, human; conditions: AAV vectors without the engrafted ZF BD, or AAV2-BD-JET-GFP in WT 293 cells
Protocol: It was then examined whether CEM87 can control recombinant AAV transgene expression in transduced cells. HEK293T.17 cells that stably expresses ZF-FKBP were transduced with an AAV2 vector that contains a zinc finger DNA binding domain recognition sequence specific to the array in ZF-FKBP upstream of a JET promoter and an eGPF reporter gene downstream of the promoter. After 24 h the cell media was replaced with media containing either 200 nM CEM87 or a DMSO control. 48 hours post CEM87 addition, cells were imaged and flow cytometry run to determine the percent eGFP expression.
Some of these experiments relied on a 293 cell line harboring a stable constitutive ZF-FKBP cassette (293-ZF-FKBP) and transduction by AAV2-JET-GFP vectors harboring the ZF binding domain recognition sequence (BD) upstream of the constitutive JET promoter (FIG. 5). Two chemicals were investigated in these initial studies, CEM87 and CEM114 which bind ZF-FKBP and act to recruit BRD4 or CBP/p300, respectively. […] Following the transduction of AAV2-BD-Jet-GFP vectors to 293-ZF-FKBP cells, increasing concentrations of CEMs (87 or 114) were added to the culture medium. Two days later, GFP fluorescence was analyzed by flow cytometry.

[2] = tested on: transgene (firefly luciferase) expression in HEK293T.17 cells; assay: ZF-CEM technology AAV transgene expression, Promega Dual Luciferase Assay in HEK293T.17 cells; type: cell-based, human
Protocol: At a higher viral genomes per cell dose of virus, higher fold change in transgene (firefly luciferase) expression was seen. HEK293T.17 cells that stably express Renilla Luciferase (for normalization purposes) were plated at 7.5K cells per well in a 96 well plate. The next day, the cells were infected with ZF-CEM technology virus at either 2K or 20K vg/cell. After 24 hours, the cells were treated with varying concentrations of CEM87. After an additional 48 hours (72 hours post initial AAV infection), a Promega Dual Luciferase Assay was run to determine the levels of luciferase.
At 20K viral genomes per cell, ZF-CEM technology was able to increase the levels of transgene (firefly luciferase) expression in a statistically significant manner as early as 24 hours and continue to have effects up to 96 hours post CEM87 addition (FIG. 16). The highest fold change in luciferase expression was seen 24 hours after CEM87 dosage (48 hours after AAV infection). HEK293T.17 cells that stably express Renilla Luciferase (for normalization purposes) were plated at 7.5K cells per well in a 96 well plate. The next day, the cells were infected with ZF-CEM technology virus at 20K vg/cell. After 24 hours, the cells were treated with 200 nM CEM87. A Promega Dual Luciferase Assay was run every 24 hours post CEM87 dosage to determine the levels of luciferase over time.
At 20K viral genomes per cell, the impact of ZF-CEM technology on transgene expression was reversible through washout or washout with the addition of FK506, a chemical capable of competing off CEM87 from the transgene it is recruited to (FIG. 17). Reversibility was achieved within 24 hours of removal of CEM87 through washout or washout and treatment with 100× more FK506 ([…]). HEK293T.17 cells that stably express Renilla Luciferase (for normalization purposes) were plated at 7.5K cells per well in a 96 well plate. The next day, the cells were infected with ZF-CEM technology virus at 20K vg/cell. After 24 hours, the cells were treated with 200 nM CEM87. After 48 hours, wells were either washed out with fresh media or washed out with fresh media that contained […]. A Promega Dual Luciferase Assay was run every 24 hours post washout/FK506 dosage to determine the levels of luciferase over time.
HEK293T.17 cells that stably express Renilla Luciferase (for normalization purposes) were plated at 7.5K cells per well in a 96 well plate. The next day, the cells were infected with ZF-CEM technology virus at 20K vg/cell. After 24 hours, the cells were treated with 200 nM CEM114. After 48 hours, a Promega Dual Luciferase Assay was run to determine the levels of luciferase.

[3] = Pharmacokinetics of CEM87 in mice; conditions: mouse, in vivo
Protocol: Pharmacokinetic Data of CEM87 in Mice: Initial and encouraging pharmacokinetics (PK) analysis of CEM87 were conducted. Mice were administered a single 3 mg/kg dose of CEM87 via intravenous (IV) injection or a single dose of 30 mg/kg of CEM87 through the intraperitoneal (IP) route (n=9 per group, 3 mice per time point).

COc1ccc2c(c1)C(c1ccc(Cl)cc1)=N[C@@H](CC(=O)NCc1cn(CCOCCOCCOCCNC(=O)CCSCCC[C@@H]3/C=C(\C)C[C@H](C)C[C@H](OC)[C@H]4O[C@@](O)(C(=O)C(=O)N5CCCC[C@H]5C(=O)O[C@H](/C(C)=C/[C@@H]5CC[C@@H](O)[C@H](OC)C5)[C@H](C)[C@@H](O)CC3=O)[C@H](C)C[C@@H]4OC)nn1)c1nnc(C)n1-2 [CEM87]
drug response in control experiments [1]: no drug response
chemical control of transgene (firefly luciferase) expression (in words) ([2]; 2K or 20K vg/cell, varying concentrations, 48 hours after CEM87 (72 hours post AAV infection)): dose dependent chemical control
earliest time of statistically significant increase of transgene (firefly luciferase) expression post CEM87 addition ([2]; 20K vg/cell, 200 nM CEM87): 24 h
time up to which effects on luciferase expression continue post CEM87 addition ([2]; 20K vg/cell, 200 nM CEM87): up to 96 hours
time of highest fold change in luciferase expression after CEM87 dosage ([2]; 20K vg/cell, 200 nM CEM87, 48 hours after AAV infection): 24 h
time to reversibility of transgene expression after removal of CEM87 ([2]; 20K vg/cell, 200 nM CEM87 for 48 hours, then washout or washout with 100× more FK506): ≤ 24 h
AUC(0-t) ([3]; single 3 mg/kg IV, read-out: exposure (AUC0-24)): 27500 ng·h/mL
half-life ([3]; single 3 mg/kg IV, read-out: half-life (t1/2) (converted)): ~4 h
Cmax ([3]; single 3 mg/kg IV, read-out: maximal concentration (Cmax)): 34100 ng/mL
bioavailability ([3]; single 30 mg/kg IP): ~50%
AUC(0-t) ([3]; single 30 mg/kg IP, read-out: AUC0-24): 114000 ng·h/mL
Cmax ([3]; single 30 mg/kg IP, read-out: Cmax): 15500 ng/mL
half-life ([3]; single 30 mg/kg IP, read-out: t1/2 (converted)): 4 h

CO[C@H]1C[C@@H](C)C/C(C)=C/[C@@H](CCCSCCC(=O)NCCOCCOCCOCCn2cc(COc3ccc(CCc4nc5cc(-c6c(C)noc6C)ccc5n4CCN4CCOCC4)cc3F)nn2)C(=O)C[C@H](O)[C@@H](C)[C@@H](/C(C)=C/[C@@H]2CC[C@@H](O)[C@H](OC)C2)OC(=O)[C@@H]2CCCCN2C(=O)C(=O)[C@]2(O)O[C@H]1[C@@H](OC)C[C@H]2C [CEM114]
effect on AAV transgene expression (in words) ([2]; 20K vg/cell, 200 nM CEM114, 48 hours): increase AAV transgene expression
